{"source": "patent US20260053861A1", "about": "“CELL COMPOSITIONS AND METHODS OF USING THE SAME” (THE REGENTS OF THE UNIVERSITY OF CALIFORNIA, priority 2022, published 2026)", "note": "Where a name gives a salt, the structure may show the parent alone.", "data": [{"system": "hPSC-SCs", "settings": "not given", "values": [{"smiles": "COc1ccc2c3c([nH]c2c1)[C@H]1C[C@H]2[C@H](C[C@@H](O)[C@H](OC)[C@H]2C(=O)O)CN1CC3.Cl", "note": "[Reserpinic acid hydrochloride]", "z.score.t": "−0.4278"}, {"smiles": "COc1ccn(C)c(=O)c1C#N", "note": "[Ricinine]", "z.score.t": 0.8646}, {"smiles": "Cc1nc2n(c(=O)c1CCN1CCC(c3noc4cc(F)ccc34)CC1)CCCC2", "note": "[Risperidone]", "z.score.t": 0.02517}, {"smiles": "O=[N+]([O-])c1cc([As](=O)(O)O)ccc1O", "note": "[Roxarsone]", "z.score.t": "−0.751"}, {"smiles": "c1ccc2c(c1)CCCc1cc(NCCN3CCOCC3)nnc1-2", "note": "[SR-95639A]", "z.score.t": "−0.4139"}, {"smiles": "C[n+]1cc2c3c(ccc2c2ccc4cc5c(cc4c21)OCO5)OCO3", "note": "[Sanguinarine]", "z.score.t": "−1.558"}, {"smiles": "Br.C[N+]1([O-])[C@@H]2CC(OC(=O)[C@H](CO)c3ccccc3)C[C@H]1[C@@H]1O[C@@H]12", "note": "(some centres unmarked) [Scopolamin-N-oxide hydrobromide]", "z.score.t": "−0.1983"}, {"smiles": "CN1[C@@H]2C[C@@H](OC(=O)[C@H](CO)c3ccccc3)C[C@H]1[C@@H]1O[C@@H]12", "note": "[Scopolamine hydrochloride]", "z.score.t": 0.07936}, {"smiles": "COc1cc2c(cc1O)[C@@H]1Cc3ccc(OC)c(O)c3CN1CC2", "note": "[Scoulerine]", "z.score.t": "−1.209"}, {"smiles": "O=C1C=C2C=C[C@@H]3C[C@@]2(O1)[C@H]1CCCCN31", "note": "[Securinine]", "z.score.t": "−0.9042"}, {"smiles": "C#CCN(C)[C@H](C)Cc1ccccc1", "note": "[Selegiline hydrochloride]", "z.score.t": "−0.9978"}, {"smiles": "C=C1C/C(=C/C)C(=O)O[C@@H]2CCN3CC=C(COC(=O)[C@]1(C)O)[C@H]23", "note": "[Seneciphylline]", "z.score.t": 0.767}, {"smiles": "NCCc1c[nH]c2ccc(O)cc12", "note": "[Serotonin hydrochloride]", "z.score.t": "−1.195"}, {"smiles": "C[C@@H]1CC[C@@]2(NC1)O[C@H]1C[C@H]3[C@@H]4CC=C5C[C@@H](O)CC[C@]5(C)[C@H]4CC[C@]3(C)[C@H]1[C@@H]2C", "note": "[Solasodine]", "z.score.t": 0.9178}, {"smiles": "C1CCN2C[C@@H]3C[C@@H](CN4CCCC[C@@H]34)[C@H]2C1", "note": "[Sparteine (−)]", "z.score.t": 0.1131}, {"smiles": "C[C@]12CC[C@H]3[C@@H](CC[C@]4(O)C[C@@H](O)CC[C@]34C=O)[C@@]1(O)CC[C@@H]2C1=CC(=O)OC1", "note": "[Strophanthidin]", "z.score.t": "−2.4"}, {"smiles": "C[C@@H]1O[C@@H](O[C@H]2C[C@@H](O)[C@]3(CO)[C@H]4[C@H](O)C[C@]5(C)[C@@H](C6=CC(=O)OC6)CC[C@]5(O)[C@@H]4CC[C@]3(O)C2)[C@H](O)[C@H](O)[C@H]1O.O.O.O.O.O.O.O.O", "note": "[Strophantine octahydrate]", "z.score.t": "−2.04"}]}, {"system": "hPSC-SCs", "settings": "HTS viability of hPSC-SCs in the presence of 30 mM glucose; Prestwick library; Table S4", "values": [{"smiles": "O=C(O)[C@]1(O)C[C@@H](O)[C@@H](O)[C@H](O)C1", "note": "[Quinic acid]", "z.score.t": 0.5268}, {"smiles": "C=C[C@H]1C[N@@]2CC[C@H]1C[C@@H]2[C@@H](O)c1ccnc2ccc(OC)cc12", "note": "[Quinidine hydrochloride monohydrate]", "z.score.t": "−0.6093"}, {"smiles": "CC(=O)SCC(Cc1ccccc1)C(=O)NCC(=O)OCc1ccccc1", "note": "(centres unmarked) [Racecadotril]", "z.score.t": "−0.1853"}, {"smiles": "O=C(c1ccc(OCCN2CCCCC2)cc1)c1c(-c2ccc(O)cc2)sc2cc(O)ccc12", "note": "[Raloxifene hydrochloride]", "z.score.t": "−1.825"}, {"smiles": "CCOC(=O)[C@H](CCc1ccccc1)N[C@@H](C)C(=O)N1[C@H](C(=O)O)C[C@@H]2CCC[C@@H]21", "note": "[Ramipril]", "z.score.t": "−0.5351"}, {"smiles": "CNC(=C[N+](=O)[O-])NCCSCc1ccc(CN(C)C)o1", "note": "[Ranitidine hydrochloride]", "z.score.t": 0.4486}, {"smiles": "COc1ccccc1OCC(O)CN1CCN(CC(=O)Nc2c(C)cccc2C)CC1", "note": "(centres unmarked) [Ranolazine]", "z.score.t": 1.442}, {"smiles": "COC(=O)[C@H]1[C@H]2C[C@H]3c4[nH]c5ccccc5c4CCN3C[C@H]2CC[C@@H]1O", "note": "[Rauwolscine hydrochloride]", "z.score.t": 1.384}, {"smiles": "CCN1CCC[C@H]1CNC(=O)c1c(OC)ccc(Br)c1OC", "note": "[Remoxipride Hydrochloride]", "z.score.t": 0.05395}, {"smiles": "CCOc1cc(CC(=O)N[C@@H](CC(C)C)c2ccccc2N2CCCCC2)ccc1C(=O)O", "note": "[Repaglinide]", "z.score.t": "−1.216"}, {"smiles": "COC(=O)[C@H]1[C@H]2C[C@@H]3c4[nH]c5cc(OC)ccc5c4CCN3C[C@H]2C[C@@H](OC(=O)/C=C/c2cc(OC)c(OC)c(OC)c2)[C@@H]1OC", "note": "[Rescinnamin]", "z.score.t": 0.006455}, {"smiles": "COC(=O)[C@H]1[C@H]2C[C@@H]3c4[nH]c5cc(OC)ccc5c4CCN3C[C@H]2C[C@@H](OC(=O)c2cc(OC)c(OC)c(OC)c2)[C@@H]1OC", "note": "[Reserpine]", "z.score.t": "−1.042"}, {"smiles": "Oc1ccc(C=Cc2cc(O)cc(O)c2)cc1", "note": "[Resveratrol]", "z.score.t": 0.9702}, {"smiles": "CC1=C(/C=C/C(C)=C/C=C/C(C)=C/C(=O)O)C(C)(C)CCC1", "note": "[Retinoic acid]", "z.score.t": 1.751}, {"smiles": "NC(=O)c1ncn([C@@H]2O[C@H](CO)[C@@H](O)[C@H]2O)n1", "note": "[Ribavirin]", "z.score.t": 2.03}, {"smiles": "Cc1cc2nc3c(=O)[nH]c(=O)nc-3n(C[C@H](O)[C@H](O)[C@H](O)CO)c2cc1C", "note": "[Riboflavine]", "z.score.t": 1.211}, {"smiles": "NC[C@H]1O[C@H](O[C@H]2[C@H](O[C@@H]3O[C@H](CO)[C@@H](O)[C@H]3O)[C@@H](O)[C@H](N)C[C@@H]2N)[C@H](N)[C@@H](O)[C@@H]1O", "note": "[Ribostamycin sulfate salt]", "z.score.t": "−0.7757"}, {"smiles": "CO[C@H]1/C=C/O[C@@]2(C)Oc3c(C)c(O)c4c(c3C2=O)C2=NC3(CCN(CC(C)C)CC3)NC2=C(NC(=O)/C(C)=C\\C=C\\[C@H](C)[C@H](O)[C@@H](C)[C@@H](O)[C@@H](C)[C@H](OC(C)=O)[C@@H]1C)C4=O", "note": "[Rifabutin]", "z.score.t": "−0.1474"}, {"smiles": "CO[C@H]1/C=C/O[C@@]2(C)Oc3c(C)c(O)c4c(O)c(c(/C=N/N5CCN(C)CC5)c(O)c4c3C2=O)NC(=O)/C(C)=C\\C=C\\[C@H](C)[C@H](O)[C@@H](C)[C@@H](O)[C@@H](C)[C@H](OC(C)=O)[C@@H]1C", "note": "[Rifampicin]", "z.score.t": 1.139}, {"smiles": "CCC(=O)[C@@]1(C)[C@H](C)C[C@H]2[C@@H]3CCC4=CC(=O)C=C[C@]4(C)[C@H]3[C@@H](O)C[C@@]21C", "note": "[Rimexolone]", "z.score.t": "−1.354"}, {"smiles": "CC(NCCc1ccc(O)cc1)C(O)c1ccc(O)cc1", "note": "(centres unmarked) [Ritodrine hydrochloride]", "z.score.t": 0.5046}, {"smiles": "COc1ccc(C2CNC(=O)C2)cc1OC1CCCC1", "note": "(centres unmarked) [Rolipram]", "z.score.t": "−0.01101"}, {"smiles": "CN(C)[C@@H]1C(O)=C(C(=O)NCN2CCCC2)C(=O)[C@@]2(O)C(O)=C3C(=O)c4c(O)cccc4[C@@](C)(O)[C@H]3C[C@@H]12", "note": "[Rolitetracycline]", "z.score.t": 1.601}, {"smiles": "Cn1c([N+](=O)[O-])cnc1COC(N)=O", "note": "[Ronidazole]", "z.score.t": "−0.5875"}, {"smiles": "CC(=O)OCC(=O)NCCCOc1cccc(CN2CCCCC2)c1", "note": "[Roxatidine Acetate HCl]", "z.score.t": 1.139}, {"smiles": "CC[C@H]1OC(=O)[C@H](C)[C@@H](O[C@H]2C[C@@](C)(OC)[C@@H](O)[C@H](C)O2)[C@H](C)[C@@H](O[C@@H]2O[C@H](C)C[C@H](N(C)C)[C@H]2O)[C@](C)(O)C[C@@H](C)/C(=N\\OCOCCOC)[C@H](C)[C@@H](O)[C@]1(C)O", "note": "[Roxithromycin]", "z.score.t": 0.3241}, {"smiles": "CC(C)Cc1ccc([C@H](C)C(=O)O)cc1", "note": "[S-(+)-ibuprofen]", "z.score.t": 1.02}, {"smiles": "CC(C)(C)NCC(O)c1ccc(O)c(CO)c1", "note": "(centres unmarked) [Salbutamol]", "z.score.t": 0.5041}, {"smiles": "OCc1cc(C(O)CNCCCCCCOCCCCc2ccccc2)ccc1O", "note": "(centres unmarked) [Salmeterol]", "z.score.t": "−1.331"}, {"smiles": "C[C@@H]1NCCc2cc(O)c(O)cc21", "note": "[Salsolinol hydrobromide]", "z.score.t": 0.4048}, {"smiles": "CC(C)(C)NC(=O)[C@@H]1C[C@@H]2CCCC[C@@H]2CN1C[C@@H](O)[C@H](Cc1ccccc1)NC(=O)[C@H](CC(N)=O)NC(=O)c1ccc2ccccc2n1", "note": "[Saquinavir mesylate]", "z.score.t": "−0.3033"}, {"smiles": "COc1cc2ccc(=O)oc2cc1O", "note": "[Scopoletin]", "z.score.t": "−1.558"}, {"smiles": "Clc1ccc(C(Cn2ccnc2)OCc2csc3c(Cl)cccc23)c(Cl)c1", "note": "(centres unmarked) [Sertaconazole nitrate]", "z.score.t": "−1.558"}, {"smiles": "CN[C@H]1CC[C@@H](c2ccc(Cl)c(Cl)c2)c2ccccc21", "note": "[Sertraline]", "z.score.t": "−1.388"}, {"smiles": "CCC(C)(C)C(=O)O[C@H]1C[C@@H](C)C=C2C=C[C@H](C)[C@H](CC[C@@H]3C[C@@H](O)CC(=O)O3)[C@H]21", "note": "[Simvastatin]", "z.score.t": "−0.9395"}, {"smiles": "CN[C@@H]1[C@@H](O)[C@@H](O[C@@H]2[C@@H](O)[C@H](O[C@H]3OC(CN)=CC[C@H]3N)[C@@H](N)C[C@H]2N)OC[C@]1(C)O", "note": "[Sisomicin sulfate]", "z.score.t": "−0.3319"}, {"smiles": "COc1ccc2c(OC)c3ccoc3nc2c1OC", "note": "[Skimmianine]", "z.score.t": "−0.7376"}, {"smiles": "CC(C)NCC(O)c1ccc(NS(C)(=O)=O)cc1", "note": "(centres unmarked) [Sotalol hydrochloride]", "z.score.t": "−1.056"}, {"smiles": "CC(=O)N[C@@H](CC(=O)N[C@@H](CCC(=O)O)C(=O)O)C(=O)O", "note": "[Spaglumic acid]", "z.score.t": 2.046}, {"smiles": "CN[C@@H]1[C@H](O)[C@H](NC)[C@H]2O[C@@]3(O)C(=O)C[C@@H](C)O[C@H]3O[C@@H]2[C@H]1O", "note": "[Spectinomycin dihydrochloride]", "z.score.t": 1.101}, {"smiles": "O=C(CCCN1CCC2(CC1)C(=O)NCN2c1ccccc1)c1ccc(F)cc1", "note": "[Spiperone]", "z.score.t": 0.09999}, {"smiles": "CC(=O)S[C@@H]1CC2=CC(=O)CC[C@]2(C)[C@H]2CC[C@@]3(C)[C@@H](CC[C@@]34CCC(=O)O4)[C@H]12", "note": "[Spironolactone]", "z.score.t": 0.05523}, {"smiles": "C[N+]1(C)CCC[C@H]1C(=O)[O-].Cl", "note": "[Stachydrine hydrochloride]", "z.score.t": "−0.8304"}, {"smiles": "[H]/N=C(/N)N[C@H]1[C@H](O)[C@@H](O)[C@H](O[C@@H]2O[C@@H](C)[C@](O)(C=O)[C@H]2O[C@@H]2O[C@@H](CO)[C@H](O)[C@@H](O)[C@@H]2NC)[C@@H](N/C(N)=N\\[H])[C@@H]1O", "note": "[Streptomycin sulfate]", "z.score.t": "−1.359"}, {"smiles": "O=C(O)CCC(=O)Nc1ccc(S(=O)(=O)Nc2nccs2)cc1", "note": "[Succinylsulfathiazole]", "z.score.t": "−0.6792"}, {"smiles": "Clc1ccc(CSC(Cn2ccnc2)c2ccc(Cl)cc2Cl)cc1", "note": "(centres unmarked) [Sulconazole nitrate]", "z.score.t": "−0.2136"}, {"smiles": "Nc1ccc(S(=O)(=O)NC(=O)c2ccccc2)cc1", "note": "[Sulfabenzamide]", "z.score.t": "−0.9042"}, {"smiles": "CC(=O)[N-]S(=O)(=O)c1ccc(N)cc1.O.[Na+]", "note": "[Sulfacetamide sodic hydrate]", "z.score.t": "−0.2865"}, {"smiles": "Nc1ccc(S(=O)(=O)Nc2ccc(Cl)nn2)cc1", "note": "[Sulfachloropyridazine]", "z.score.t": "−0.1014"}, {"smiles": "Nc1ccc(S(=O)(=O)Nc2ncccn2)cc1", "note": "[Sulfadiazine]", "z.score.t": 0.5856}, {"smiles": "COc1cc(NS(=O)(=O)c2ccc(N)cc2)nc(OC)n1", "note": "[Sulfadimethoxine]", "z.score.t": 0.1469}]}]}
